For ten compounds, EC50, IC50 and AC50 results are on record in ChEMBL document CHEMBL1201862, “PubChem BioAssay data set” (2004).

Calls of active or inactive are those of the source.

In series [1] the target is Hexokinase-1 (Homo sapiens, UniProt P19367). Nature of the series: HK1 enzyme activation by HKDC1 hits – biochemical, selectivity assay for HKDC1 activator project, dose response (AID 504762). Format: functional.
Series [2] concerns the target 72 kDa type IV collagenase (Homo sapiens, UniProt P08253). In words: Dose Response validation of uHTS RPN11 inhibitor hits using a MMP-2 Fluorescence assay. Format: functional.
The target of series [3] is 26S proteasome non-ATPase regulatory subunit 14 (Homo sapiens, UniProt O00487). In words: inhibition of proteasome subunit RPN11 – biochemical, fluorescence polarization, uHTS hits, confirmation (AID 602368). It is filed as functional.
The target of series [4] is Hexokinase HKDC1 (Homo sapiens, UniProt Q2TB90). In words: activation of HKDC1 glucose phosphorylation – biochemical, W721R variant, dose response (AID 504730). Format: functional.
Series [5] deals with Prothrombin (Bos taurus, UniProt P00735). In words: thrombin protease inhibitors – biochemical, fluorescence polarization, uHTS hits, dose response (AID 602369). Format: functional. (In general: In fluorescence polarisation assays a small probe gives low polarisation when free and higher when bound to something large.)
The target of series [6] is T1, Cytochrome P450 1A2 (Homo sapiens, UniProt P05177).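 Further: PubChem cytochrome P450 panel assay, CYP1A2 panel member.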
T1 sequence (P05177 whole entry): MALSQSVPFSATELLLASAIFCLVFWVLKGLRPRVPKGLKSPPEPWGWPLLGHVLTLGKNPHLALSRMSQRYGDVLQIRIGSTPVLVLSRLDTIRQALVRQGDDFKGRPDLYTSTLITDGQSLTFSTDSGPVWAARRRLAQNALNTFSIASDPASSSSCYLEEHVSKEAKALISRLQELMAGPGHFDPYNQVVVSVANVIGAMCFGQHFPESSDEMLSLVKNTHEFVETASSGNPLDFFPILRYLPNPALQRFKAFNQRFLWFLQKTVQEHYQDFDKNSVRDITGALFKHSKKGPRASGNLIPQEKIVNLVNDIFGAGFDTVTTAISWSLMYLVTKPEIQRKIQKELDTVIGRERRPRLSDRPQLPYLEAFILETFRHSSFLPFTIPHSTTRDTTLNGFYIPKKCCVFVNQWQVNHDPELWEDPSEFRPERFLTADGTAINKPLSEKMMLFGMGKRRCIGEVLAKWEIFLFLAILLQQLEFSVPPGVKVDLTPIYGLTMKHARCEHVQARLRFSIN

Series [7] deals with Cytochrome P450 2C19 (Homo sapiens, UniProt P33261). Nature of the series: Cytochrome panel assay with activity outcomes. Panel member name: p450-cyp2c19 Compounds with AC50 equal or less than 10 uM are considered active. It is filed as functional. To be noted: read-out: AC50.
Series [8] has as its target Cytochrome P450 3A4 (Homo sapiens, UniProt P08684).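 Further: CYP3A4 tested as one member of a cytochrome P450 panel screen.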
Series [9] has as its target Cytochrome P450 2C9 (Homo sapiens, UniProt P11712).
Series [10] deals with Escherichia coli. In words: microbe, parasite or virus in culture.
A short description of series [11]: HEK-293T cell viability reduction – luminescence, B-cell screen hits, cytotoxicity control for BCR NF-kB inhibitor project, dose response (AID 489021).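 Further: HEK-293T cells carrying an NF-kB luciferase reporter; cells exposed to compound for about 14 hours before viability readout.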 Format: functional, cell-based.
The target in series [12] is Peroxisome proliferator-activated receptor gamma/Nuclear receptor coactivator 1 (Homo sapiens, UniProt P37231). Nature of the series: TR-FRET dose response biochemical High Throughput Screening assay for agonists of the steroid receptor coactivator 1 (SRC-1) recruitment by the peroxisome proliferator-activated receptor gamma (PPAR gamma): non-selective agonists. [Related pubchem assays (depositor defined):AID1300, AID1808, AID504735, AID631]. Format: protein assay. (Time-resolved FRET reads energy transfer from a long-lived donor to a nearby acceptor.)

The target in series [13] is T2, Ubiquitin-conjugating enzyme E2 N (Homo sapiens, UniProt P61088).
T2 sequence (P61088 whole entry): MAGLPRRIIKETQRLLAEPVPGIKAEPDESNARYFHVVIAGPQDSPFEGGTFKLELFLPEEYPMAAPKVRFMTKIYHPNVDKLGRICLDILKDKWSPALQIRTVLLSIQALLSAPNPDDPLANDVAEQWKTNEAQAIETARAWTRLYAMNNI
It is filed as functional.

Series [14] concerns the target Peroxisome proliferator-activated receptor gamma/Nuclear receptor coactivator 2 (Homo sapiens, UniProt P37231). Nature of the series: TR-FRET dose response biochemical High Throughput Screening assay for agonists of the steroid receptor coactivator 2 (SRC-2) recruitment by the peroxisome proliferator-activated receptor gamma (PPAR gamma): non-selective agonists. [Related pubchem assays: 1297, 1032 ]. Format: functional.

The target in series [15] is Peroxisome proliferator-activated receptor gamma/Nuclear receptor coactivator 3 (Homo sapiens, UniProt P37231). In words: TR-FRET dose response biochemical High Throughput Screening assay for agonists of the steroid receptor coactivator 3 (SRC-3) recruitment by the peroxisome proliferator-activated receptor gamma (PPAR gamma): non-selective agonists. [Related pubchem assays: 1301 (Confirmation screen.), 1048 (Primary screen.)]. It is filed as functional.

Series [16] addresses T3, Bcl-2-related protein A1 (Mus musculus, UniProt Q07440).
T3 sequence (Q07440 whole entry): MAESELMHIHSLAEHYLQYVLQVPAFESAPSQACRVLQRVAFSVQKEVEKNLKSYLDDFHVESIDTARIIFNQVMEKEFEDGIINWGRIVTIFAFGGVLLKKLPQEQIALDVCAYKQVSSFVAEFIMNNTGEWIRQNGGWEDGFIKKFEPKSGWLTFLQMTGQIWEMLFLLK
Format: functional.

Series [17] addresses T2, Ubiquitin-conjugating enzyme E2 N. It is filed as functional. The source holds these as a separate data set.
The target of series [18] is Intestinal-type alkaline phosphatase (Mus musculus, UniProt P24822). Nature of the series: PubChem AID 488874. Format: functional.
For series [19], the target named is T4, Intestinal-type alkaline phosphatase (Homo sapiens, UniProt P09923). Nature of the series: activation of human intestinal alkaline phosphatase – biochemical, luminescent, uHTS hits, set 2, dose response (AID 488817).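 Further: potency of activators that raise enzyme activity.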 Format: functional.
Series [20] concerns the target T4, Intestinal-type alkaline phosphatase. Nature of the series: human intestinal alkaline phosphatase activators, dose response, biochemical, luminescence, uHTS hits (AID 463120). Format: functional.
Series [21] deals with T5, Alkaline phosphatase, tissue-nonspecific isozyme (Homo sapiens, UniProt P05186).
T5 sequence (P05186 whole entry): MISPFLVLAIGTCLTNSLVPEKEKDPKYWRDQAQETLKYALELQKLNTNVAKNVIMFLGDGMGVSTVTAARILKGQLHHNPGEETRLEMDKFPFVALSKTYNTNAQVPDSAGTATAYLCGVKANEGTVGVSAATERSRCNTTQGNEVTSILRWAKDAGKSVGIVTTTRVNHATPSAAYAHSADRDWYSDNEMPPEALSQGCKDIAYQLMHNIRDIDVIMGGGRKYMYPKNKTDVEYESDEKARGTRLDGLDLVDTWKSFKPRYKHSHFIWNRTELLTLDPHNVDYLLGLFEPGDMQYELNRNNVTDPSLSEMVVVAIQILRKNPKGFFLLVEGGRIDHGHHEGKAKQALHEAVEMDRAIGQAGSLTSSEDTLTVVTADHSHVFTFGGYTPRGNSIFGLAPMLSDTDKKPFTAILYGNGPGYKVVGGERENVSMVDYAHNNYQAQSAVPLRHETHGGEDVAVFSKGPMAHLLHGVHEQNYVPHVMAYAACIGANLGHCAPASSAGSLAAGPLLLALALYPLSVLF
In words: activation of tissue-nonspecific alkaline phosphatase – biochemical, TNAP isozyme, human IAP uHTS hits, selectivity assay for human IAP activator project, dose response (AID 488886).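 Further: potency of compounds raising TNAP activity as a selectivity check on IAP activators.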 It is filed as functional.

Series [22] has as its target T6, Long-chain-fatty-acid--AMP ligase FadD28 (Mycobacterium tuberculosis, UniProt P9WQ59).
T6 sequence (P9WQ59 whole entry): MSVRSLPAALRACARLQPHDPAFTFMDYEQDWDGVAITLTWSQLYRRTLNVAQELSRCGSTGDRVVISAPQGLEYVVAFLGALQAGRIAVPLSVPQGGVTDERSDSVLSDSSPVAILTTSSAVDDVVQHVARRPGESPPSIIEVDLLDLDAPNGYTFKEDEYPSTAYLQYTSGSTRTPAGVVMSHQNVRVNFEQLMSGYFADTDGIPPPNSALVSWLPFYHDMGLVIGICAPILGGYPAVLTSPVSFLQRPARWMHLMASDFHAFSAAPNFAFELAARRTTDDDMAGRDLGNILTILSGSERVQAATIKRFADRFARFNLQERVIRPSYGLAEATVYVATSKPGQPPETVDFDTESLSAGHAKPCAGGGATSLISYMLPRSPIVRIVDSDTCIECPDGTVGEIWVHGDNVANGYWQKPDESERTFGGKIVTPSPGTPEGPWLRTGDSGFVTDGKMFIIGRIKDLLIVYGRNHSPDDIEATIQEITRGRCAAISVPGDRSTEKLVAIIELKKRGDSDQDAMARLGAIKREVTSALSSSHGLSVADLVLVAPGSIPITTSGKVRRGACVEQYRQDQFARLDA
Nature of the series: Fluorescence polarization aasay to screen for inhibitors that compete for the binding of FadD28 to a bisubstrate Measured in Biochemical System Using Plate Reader - 2147-01_Inhibitor_Dose_CherryPick_Activity. Format: functional, Mycobacterium tuberculosis H37Rv.

Broadly, the EC50 is the concentration that produces a half-maximal response. The term IC50 denotes the concentration needed to halve the response being measured. By AC50 is commonly meant the midpoint of the concentration-response curve, whichever way the signal moves.

T4 sequence (P09923 whole entry): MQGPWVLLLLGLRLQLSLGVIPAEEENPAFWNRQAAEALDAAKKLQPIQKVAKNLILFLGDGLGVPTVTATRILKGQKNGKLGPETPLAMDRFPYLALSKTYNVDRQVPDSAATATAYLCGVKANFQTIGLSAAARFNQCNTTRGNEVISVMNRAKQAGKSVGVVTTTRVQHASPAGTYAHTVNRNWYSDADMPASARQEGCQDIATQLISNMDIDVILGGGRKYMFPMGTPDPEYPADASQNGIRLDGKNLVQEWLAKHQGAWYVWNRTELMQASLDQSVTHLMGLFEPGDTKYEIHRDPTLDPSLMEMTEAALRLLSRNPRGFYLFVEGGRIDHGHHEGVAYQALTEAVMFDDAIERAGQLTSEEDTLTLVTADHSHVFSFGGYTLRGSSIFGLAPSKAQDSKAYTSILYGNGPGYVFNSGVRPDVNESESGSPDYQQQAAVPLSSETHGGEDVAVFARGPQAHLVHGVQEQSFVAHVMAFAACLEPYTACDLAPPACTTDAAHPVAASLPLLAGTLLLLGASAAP
Chain of Intestinal-type alkaline phosphatase (Mus musculus, UniProt P24822) (P24822 whole entry): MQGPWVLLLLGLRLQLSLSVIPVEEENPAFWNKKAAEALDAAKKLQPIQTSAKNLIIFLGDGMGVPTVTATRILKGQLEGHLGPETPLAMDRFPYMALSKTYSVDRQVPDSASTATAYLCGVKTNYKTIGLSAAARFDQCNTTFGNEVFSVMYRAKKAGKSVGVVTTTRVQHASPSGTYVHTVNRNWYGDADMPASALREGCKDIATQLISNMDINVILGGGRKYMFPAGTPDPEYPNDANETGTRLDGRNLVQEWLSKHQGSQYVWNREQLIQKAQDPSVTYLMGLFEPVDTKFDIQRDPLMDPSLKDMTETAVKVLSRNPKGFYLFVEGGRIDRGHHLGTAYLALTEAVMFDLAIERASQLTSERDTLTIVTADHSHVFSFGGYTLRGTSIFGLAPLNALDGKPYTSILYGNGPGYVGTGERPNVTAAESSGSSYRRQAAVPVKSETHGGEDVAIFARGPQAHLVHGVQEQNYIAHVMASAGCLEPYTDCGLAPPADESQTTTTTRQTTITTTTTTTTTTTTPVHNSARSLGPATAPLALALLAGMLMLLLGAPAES
Chain of Peroxisome proliferator-activated receptor gamma/Nuclear receptor coactivator 3 (P37231 whole entry): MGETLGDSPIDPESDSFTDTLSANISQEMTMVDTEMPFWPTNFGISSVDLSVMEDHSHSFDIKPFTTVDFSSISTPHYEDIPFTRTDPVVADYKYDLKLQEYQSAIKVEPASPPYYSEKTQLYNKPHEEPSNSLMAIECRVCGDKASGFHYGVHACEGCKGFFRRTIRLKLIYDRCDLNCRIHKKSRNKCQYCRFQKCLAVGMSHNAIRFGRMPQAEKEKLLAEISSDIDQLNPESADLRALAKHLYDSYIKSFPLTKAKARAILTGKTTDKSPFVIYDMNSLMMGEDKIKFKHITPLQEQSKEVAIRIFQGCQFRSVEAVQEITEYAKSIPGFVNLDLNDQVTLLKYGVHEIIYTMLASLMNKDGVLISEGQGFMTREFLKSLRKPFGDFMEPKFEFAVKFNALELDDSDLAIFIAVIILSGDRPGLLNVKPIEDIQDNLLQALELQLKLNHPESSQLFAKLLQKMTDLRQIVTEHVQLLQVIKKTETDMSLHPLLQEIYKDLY
Chain of Peroxisome proliferator-activated receptor gamma/Nuclear receptor coactivator 3 (Q9Y6Q9 whole entry, further chain): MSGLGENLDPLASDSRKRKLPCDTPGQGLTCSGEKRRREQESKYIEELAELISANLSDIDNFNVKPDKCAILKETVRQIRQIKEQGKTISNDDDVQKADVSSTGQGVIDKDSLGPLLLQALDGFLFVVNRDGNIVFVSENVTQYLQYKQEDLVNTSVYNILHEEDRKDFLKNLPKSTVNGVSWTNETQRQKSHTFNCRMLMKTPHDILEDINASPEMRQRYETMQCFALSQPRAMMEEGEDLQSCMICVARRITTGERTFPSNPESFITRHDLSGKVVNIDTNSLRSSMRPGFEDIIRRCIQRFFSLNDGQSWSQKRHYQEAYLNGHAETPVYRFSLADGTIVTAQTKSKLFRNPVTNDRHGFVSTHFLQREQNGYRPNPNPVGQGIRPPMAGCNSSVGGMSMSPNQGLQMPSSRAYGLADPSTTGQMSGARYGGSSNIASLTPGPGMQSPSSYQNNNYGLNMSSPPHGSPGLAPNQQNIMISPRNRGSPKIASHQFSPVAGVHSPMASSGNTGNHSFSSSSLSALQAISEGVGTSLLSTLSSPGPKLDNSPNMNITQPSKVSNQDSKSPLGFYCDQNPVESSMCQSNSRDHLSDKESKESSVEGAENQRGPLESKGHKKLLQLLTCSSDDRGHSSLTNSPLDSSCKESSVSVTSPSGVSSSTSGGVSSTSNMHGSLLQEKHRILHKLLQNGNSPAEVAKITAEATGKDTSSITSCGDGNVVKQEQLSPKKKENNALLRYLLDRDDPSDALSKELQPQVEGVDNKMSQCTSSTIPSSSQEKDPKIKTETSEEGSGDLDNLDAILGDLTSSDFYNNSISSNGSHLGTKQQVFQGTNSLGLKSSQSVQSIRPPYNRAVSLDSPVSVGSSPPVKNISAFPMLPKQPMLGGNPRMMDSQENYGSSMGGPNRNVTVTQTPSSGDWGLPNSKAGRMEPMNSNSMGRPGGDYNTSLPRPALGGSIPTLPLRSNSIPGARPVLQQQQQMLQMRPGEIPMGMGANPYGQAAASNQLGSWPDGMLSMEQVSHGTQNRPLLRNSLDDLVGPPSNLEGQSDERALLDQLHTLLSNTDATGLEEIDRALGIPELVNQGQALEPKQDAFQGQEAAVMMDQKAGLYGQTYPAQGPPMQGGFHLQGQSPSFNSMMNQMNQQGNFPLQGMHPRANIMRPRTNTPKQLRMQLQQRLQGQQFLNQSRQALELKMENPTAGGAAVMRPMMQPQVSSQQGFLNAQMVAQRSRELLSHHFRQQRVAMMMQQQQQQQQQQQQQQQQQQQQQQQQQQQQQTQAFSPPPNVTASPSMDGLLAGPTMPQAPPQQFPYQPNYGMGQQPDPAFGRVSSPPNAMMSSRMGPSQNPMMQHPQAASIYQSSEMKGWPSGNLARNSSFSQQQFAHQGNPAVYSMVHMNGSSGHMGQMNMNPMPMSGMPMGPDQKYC
Chain of Peroxisome proliferator-activated receptor gamma/Nuclear receptor coactivator 1 (P37231 whole entry): as the sequence (P37231 whole entry) above
Chain of Peroxisome proliferator-activated receptor gamma/Nuclear receptor coactivator 1 (Q15788 whole entry, further chain): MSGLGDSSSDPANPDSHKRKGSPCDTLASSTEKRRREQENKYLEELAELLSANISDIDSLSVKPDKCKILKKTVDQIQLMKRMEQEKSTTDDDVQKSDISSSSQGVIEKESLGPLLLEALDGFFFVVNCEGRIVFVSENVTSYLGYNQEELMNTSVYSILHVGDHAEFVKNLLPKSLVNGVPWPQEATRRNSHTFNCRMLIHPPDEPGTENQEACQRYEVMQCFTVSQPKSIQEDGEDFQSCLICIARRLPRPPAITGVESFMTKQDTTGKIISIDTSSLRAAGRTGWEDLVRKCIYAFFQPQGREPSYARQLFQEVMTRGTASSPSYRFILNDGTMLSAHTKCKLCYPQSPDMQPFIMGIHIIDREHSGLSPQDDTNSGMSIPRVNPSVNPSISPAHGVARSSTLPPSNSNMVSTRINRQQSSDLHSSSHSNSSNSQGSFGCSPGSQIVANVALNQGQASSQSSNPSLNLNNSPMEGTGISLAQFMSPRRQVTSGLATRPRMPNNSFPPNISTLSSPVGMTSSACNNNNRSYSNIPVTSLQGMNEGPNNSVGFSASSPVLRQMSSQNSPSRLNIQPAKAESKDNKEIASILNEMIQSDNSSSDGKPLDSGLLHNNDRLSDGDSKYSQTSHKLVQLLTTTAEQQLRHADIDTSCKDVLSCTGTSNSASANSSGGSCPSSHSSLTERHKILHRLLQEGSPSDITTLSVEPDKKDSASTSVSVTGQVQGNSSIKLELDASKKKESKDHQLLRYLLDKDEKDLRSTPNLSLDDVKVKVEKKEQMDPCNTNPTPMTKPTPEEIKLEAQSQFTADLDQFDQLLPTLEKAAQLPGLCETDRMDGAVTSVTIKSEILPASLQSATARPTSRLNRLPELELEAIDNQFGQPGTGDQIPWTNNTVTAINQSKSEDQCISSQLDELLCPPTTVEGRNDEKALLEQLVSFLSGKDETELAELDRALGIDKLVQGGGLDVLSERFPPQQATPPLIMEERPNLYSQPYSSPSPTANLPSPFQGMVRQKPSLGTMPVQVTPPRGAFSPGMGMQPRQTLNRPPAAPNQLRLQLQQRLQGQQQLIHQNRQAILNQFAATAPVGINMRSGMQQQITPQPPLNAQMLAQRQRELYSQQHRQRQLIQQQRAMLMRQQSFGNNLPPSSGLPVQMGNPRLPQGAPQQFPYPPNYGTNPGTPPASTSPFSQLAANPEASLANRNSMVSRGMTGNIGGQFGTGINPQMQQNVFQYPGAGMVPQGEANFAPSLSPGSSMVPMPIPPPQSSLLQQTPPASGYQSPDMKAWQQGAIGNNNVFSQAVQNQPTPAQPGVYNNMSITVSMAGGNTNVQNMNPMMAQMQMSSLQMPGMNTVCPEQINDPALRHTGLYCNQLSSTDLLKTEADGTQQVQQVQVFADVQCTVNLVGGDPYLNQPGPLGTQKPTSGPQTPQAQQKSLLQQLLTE

For the compound `COc1ccc(-c2[nH]c(-c3ccc(SC)cc3)nc2SCC(=O)Nc2nccs2)cc1`, the results for the EC50 in series [1] and in series [4] were 16.3 µM (active) and 10.9 µM (active), respectively. Further, the IC50 in series [2] is > 100 µM (inactive); in [3] it was 19.6 µM (active); in series [5], 49.9 µM (active).
With `Cc1cnc(CNc2cc(-c3ccccc3C(F)(F)F)ncn2)cn1`, the AC50 in series [6] was 25.1 µM (inconclusive); in series [7], 39.8 µM (inconclusive); in [8] it was “inconclusive”; in series [9], “inconclusive”.
Regarding `CCc1ccc2c(COC(=O)C3CC(=O)N(CCc4ccccc4)C3)cc(=O)oc2c1` (centres undefined), the AC50 in [10] was 133 µM (active).
`CCN1CCN(C(=O)CSc2cc(=O)n(CC)c3ccccc23)CC1`: the IC50 in series [11] is > 80 µM (inactive); in series [13], > 20 µM (inactive). Also, the EC50 is > 79.4 µM (inactive) in [12], > 79.4 µM (not active) in series [14] and > 79.4 µM (not active) in series [15].
In the case of `Cc1ccc(S(=O)(=O)CCNC(=O)Cc2ccc(Cl)cc2)cc1`, the AC50 in series [10] is 46.1 µM (active).
Regarding `O=C(CCCn1c(=O)c2ccccc2n(Cc2cccc(F)c2)c1=O)NC1CCN(Cc2ccccc2)CC1`, the IC50 is 2.11 µM (active) in series [13], > 20 µM (inactive) in series [16] and 1.31 µM (active) in series [17].
In the case of `CC(C)(C)OC(=O)N1CCC(NC(=O)c2[nH]cnc2C(=O)Nc2ccon2)CC1`, the IC50 in series [18] is 47.2 µM (active). In addition, the EC50 was 13.3 µM (active) in series [19], 10.1 µM (active) in series [20] and 13.9 µM (active) in series [21].
For the compound `COCCNc1nc2c(-c3cccc(C(F)(F)F)c3)nnn2c2ccccc12`, the IC50 is 10.3 µM (active) in [13], > 20 µM (inactive) in series [16] and > 20 µM (inactive) in series [17].
With `CCOC(=O)CSc1cc(=O)n(CC)c2ccccc12`, the EC50 in series [12] is > 79.4 µM (inactive); in series [14], > 79.4 µM (not active); in [15], > 79.4 µM (not active).
Consider `CN(C)S(=O)(=O)c1cccc(NC(=S)NNC(=O)c2cc3ccccc3cc2O)c1`, for which, in [18], the IC50 is 34.2 µM (active). Moreover, the EC50 is 16.1 µM (active) in series [19], 8.74 µM (active) in series [20] and 12.5 µM (active) in series [21]. Besides, the AC50 in [22] is 77.8 µM (active).
